How the values were obtained:
[1] = biological target: T1, Alpha-1A adrenergic receptor (Homo sapiens, UniProt P35348); assay: Displacement of [3H]prazosin from human adrenergic alpha1A receptor expressed in LMtk- cells; type: cell-based
T1 sequence (P35348 whole entry): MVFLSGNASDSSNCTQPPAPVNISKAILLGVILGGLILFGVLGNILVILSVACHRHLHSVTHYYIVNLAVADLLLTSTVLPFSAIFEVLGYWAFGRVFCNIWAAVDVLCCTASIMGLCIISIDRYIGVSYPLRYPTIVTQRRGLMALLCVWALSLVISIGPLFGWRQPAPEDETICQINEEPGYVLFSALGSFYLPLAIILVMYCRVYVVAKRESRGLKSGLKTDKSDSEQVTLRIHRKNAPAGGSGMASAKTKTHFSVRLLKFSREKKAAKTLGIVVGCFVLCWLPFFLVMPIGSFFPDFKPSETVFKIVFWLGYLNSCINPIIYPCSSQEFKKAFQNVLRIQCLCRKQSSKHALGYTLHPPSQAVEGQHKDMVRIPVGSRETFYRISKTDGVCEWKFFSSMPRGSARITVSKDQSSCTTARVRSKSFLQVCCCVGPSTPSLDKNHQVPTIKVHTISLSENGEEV

[2] = Volume of distribution at steady state in Sprague-Dawley rat at 1 mg/kg, iv; type: ADME, organism-based; parameters: dose 1 mg/kg, route intravenous; conditions: in vivo, read-out: Vdss
[3] = Half life in Sprague-Dawley rat at 1 mg/kg, iv; type: ADME, organism-based; parameters: dose 1 mg/kg, route intravenous; conditions: in vivo
[4] = AUC (0 to infinity) in Sprague-Dawley rat at 3 mg/kg, po; type: ADME, organism-based; parameters: time infinity, dose 3 mg/kg, route oral; conditions: plasma
[5] = tested on: Rattus norvegicus; assay: Plasma clearance in Sprague-Dawley rat at 1 mg/kg, iv; type: ADME, organism-based; parameters: dose 1 mg/kg, route intravenous; conditions: in vivo
[6] = Oral bioavailability in Sprague-Dawley rat; type: ADME, organism-based; conditions: in vivo
[7] = tested on: Rattus norvegicus; assay: Plasma concentration in Sprague-Dawley rat at 10 mg/kg, po; type: ADME, organism-based; parameters: dose 10 mg/kg, route oral; conditions: in vivo
[8] = biological target: Histamine H1 receptor (Homo sapiens, UniProt P35367); assay: Inhibition of human histamine H1 receptor
Histamine H1 receptor, sequence (P35367 whole entry): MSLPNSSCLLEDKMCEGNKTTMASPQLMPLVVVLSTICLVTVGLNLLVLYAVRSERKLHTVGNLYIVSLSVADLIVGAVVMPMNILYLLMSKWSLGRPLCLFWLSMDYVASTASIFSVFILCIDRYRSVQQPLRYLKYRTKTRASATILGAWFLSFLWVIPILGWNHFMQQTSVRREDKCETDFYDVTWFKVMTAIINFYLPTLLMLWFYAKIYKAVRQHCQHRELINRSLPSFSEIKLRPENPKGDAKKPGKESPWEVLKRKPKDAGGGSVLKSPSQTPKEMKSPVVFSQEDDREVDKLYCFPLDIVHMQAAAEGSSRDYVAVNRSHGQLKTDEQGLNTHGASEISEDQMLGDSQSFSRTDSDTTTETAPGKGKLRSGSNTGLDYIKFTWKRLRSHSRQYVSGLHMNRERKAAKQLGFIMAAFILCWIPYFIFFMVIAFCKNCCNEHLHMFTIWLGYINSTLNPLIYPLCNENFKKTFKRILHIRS

[9] = tested on: Brain; assay: Drug level in Sprague-Dawley rat brain at 10 mg/kg, po; type: ADME, organism-based; parameters: dose 10 mg/kg, route oral; conditions: in vivo
[10] = Cmax in Sprague-Dawley rat at 3 mg/kg, po; type: ADME, organism-based; parameters: dose 3 mg/kg, route oral; conditions: in vivo
[11] = biological target: Histamine H4 receptor (Homo sapiens, UniProt Q9H3N8); assay: Inhibition of human histamine H4 receptor
Histamine H4 receptor, sequence (Q9H3N8 whole entry): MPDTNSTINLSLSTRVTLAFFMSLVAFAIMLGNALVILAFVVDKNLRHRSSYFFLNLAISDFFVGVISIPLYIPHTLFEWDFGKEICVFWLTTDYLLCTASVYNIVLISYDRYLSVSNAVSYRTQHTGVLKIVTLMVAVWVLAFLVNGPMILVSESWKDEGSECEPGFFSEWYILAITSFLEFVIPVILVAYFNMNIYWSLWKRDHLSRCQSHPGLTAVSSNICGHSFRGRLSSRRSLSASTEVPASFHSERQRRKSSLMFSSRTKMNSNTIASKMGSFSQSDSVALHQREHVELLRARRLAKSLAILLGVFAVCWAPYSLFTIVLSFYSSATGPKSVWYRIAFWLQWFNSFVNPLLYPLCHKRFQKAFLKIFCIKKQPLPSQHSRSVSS

[12] = biological target: Histamine H2 receptor (Homo sapiens, UniProt P25021); assay: Inhibition of human histamine H2 receptor
Histamine H2 receptor, sequence (P25021 whole entry): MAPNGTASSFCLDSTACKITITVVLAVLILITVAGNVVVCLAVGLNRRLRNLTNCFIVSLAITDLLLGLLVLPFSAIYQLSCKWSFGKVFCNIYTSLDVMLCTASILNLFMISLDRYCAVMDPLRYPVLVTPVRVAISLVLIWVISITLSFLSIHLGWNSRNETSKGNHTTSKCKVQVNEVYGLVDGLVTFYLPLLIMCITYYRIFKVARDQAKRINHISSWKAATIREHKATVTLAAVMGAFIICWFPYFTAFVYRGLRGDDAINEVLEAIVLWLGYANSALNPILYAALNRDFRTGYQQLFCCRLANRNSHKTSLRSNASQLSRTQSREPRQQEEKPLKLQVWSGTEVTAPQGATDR

[13] = tested on: Rattus norvegicus; assay: Increase in tele-methylhistamine level in po dosed Sprague-Dawley rat brain; type: functional, organism-based

SMILES	IC50 [1]	further results
Cn1c(-c2ccc(OCCCN3CCCC3)cc2)nc2ccccc2c1=O	2.2 µM	–
COc1cccc2c(=O)n(C)c(-c3ccc(OC4CCN(C5CCC5)CC4)cc3)nc12	> 10 µM	–
Cn1c(-c2ccc(OC3CCN(C4CCC4)CC3)cc2)nc2ccccc2c1=O	6.3 µM	–
Cn1c(-c2ccc(OC3CCN(C4CCC4)CC3)cc2)nc2c(F)cccc2c1=O	4.5 µM	–
Cn1c(-c2ccc(OC3CCN(C4CCC4)CC3)cc2)nc2c(C(F)(F)F)cccc2c1=O	> 10 µM	–
CCn1c(-c2ccc(OCCCN3CCCCC3)cc2)nc2ccccc2c1=O	1.3 µM	–
COc1ccc2nc(-c3ccc(OC4CCN(C5CCC5)CC4)cc3)n(C)c(=O)c2c1	5.9 µM	–
COc1ccc2c(=O)n(C)c(-c3ccc(OC4CCN(C5CCC5)CC4)cc3)nc2c1	> 10 µM	–
COc1cccc2nc(-c3ccc(OC4CCN(C5CCC5)CC4)cc3)n(C)c(=O)c12	4.2 µM	–
O=c1c2ccccc2nc(-c2ccc(OCCCN3CCCCC3)cc2)n1Cc1ccccc1	7.2 µM	–
COc1nccc2c(=O)n(C)c(-c3ccc(OC4CCN(C5CCC5)CC4)cc3)nc12	> 10 µM	Vd [2]: 4.8 L/kg; half-life [3]: 2 h; AUC(0-inf) [4]: 2100 nM·h; clearance [5]: 1.74 L/h/kg; bioavailability [6]: 48%; concentration [7]: 2.08 µM; IC50 [8]: > 10 µM; Drug uptake [9]: 2.96 nmol/g; Cmax [10]: 0.57 µM; IC50 [11]: > 10 µM; IC50 [12]: > 10 µM; Activity [13]: Dose-dependent effect
Cn1c(-c2ccc(OC3CCN(C4CCCC4)CC3)cc2)nc2ccccc2c1=O	6.2 µM	–
O=c1c2ccccc2nc(-c2ccc(OCCCN3CCCCC3)cc2)n1-c1ccccc1	2.4 µM	–
Cc1cccc2c(=O)n(C)c(-c3ccc(OC4CCN(C5CCC5)CC4)cc3)nc12	10 µM	–
Cc1nc2ccccc2c(=O)n1-c1ccc(OCCCN2CCCCC2)cc1	6.5 µM	–
Cn1c(-c2ccc(OCCCN3CCCCC3)cc2)nc2ccccc2c1=O	2.9 µM	–
Cn1c(-c2ccc(OC3CCN(C4CCC4)CC3)cc2)nc2c(Cl)cccc2c1=O	6.5 µM	–

From ChEMBL document CHEMBL1152163, “Development of novel 2-[4-(aminoalkoxy)phenyl]-4(3H)-quinazolinone derivatives as potent and selective histamine H3 receptor inverse agonists” (Bioorg Med Chem Lett, 2008)
